± gives the standard deviation of the averaged measurements.
Columns and labels:
Test in all cases: LOEC (log10 uM (lowest observed effect concentration))
[1] = compound: NS(=O)(=O)C(F)(F)C(F)(F)C(F)(F)C(F)(F)C(F)(F)C(F)(F)C(F)(F)C(F)(F)F [Perfluorooctanesulfonamide]
Experimental: (§1)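 BioMAP Diversity Plus panel in human primary cell co-cultures, 4 concentrations in duplicate blinded samples. Responses are log10 fold change versus DMSO control, processed with tcpl v2.1.0. A hit is called when responses at any concentration exceed the cutoff (the larger of 3*bmad or log10(1.2)); the lowest observed effect concentration (modl_ga, log10 uM) is reported for hits.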

[2] = compound: O=C(O)C(F)(F)OC(F)(F)C(F)(F)OC(F)(F)C(F)(F)OC(F)(F)C(F)(F)C(F)(F)C(F)(F)F [Perfluoro-3,6,9-trioxatridecanoic acid]
Experimental: as §1

Perfluorononanoic acid = compound: O=C(O)C(F)(F)C(F)(F)C(F)(F)C(F)(F)C(F)(F)C(F)(F)C(F)(F)C(F)(F)F [Perfluorononanoic acid]
Experimental: as §1

[3] = compound: CCNS(=O)(=O)C(F)(F)C(F)(F)C(F)(F)C(F)(F)C(F)(F)C(F)(F)C(F)(F)C(F)(F)F [N-Ethylperfluorooctanesulfonamide]
Experimental: as §1

Perfluoroundecanoic acid = compound: O=C(O)C(F)(F)C(F)(F)C(F)(F)C(F)(F)C(F)(F)C(F)(F)C(F)(F)C(F)(F)C(F)(F)C(F)(F)F [Perfluoroundecanoic acid]
Experimental: as §1

[4] = compound: O=C(O)C=C(C(F)(F)F)C(F)(F)F [3,3-Bis(trifluoromethyl)-2-propenoic acid]
Experimental: as §1

[5] = compound: OCC(F)(F)OC(F)(F)C(F)(F)OC(F)(F)C(F)(F)OC(F)(F)CO [1H,1H,11H,11H-Perfluorotetraethylene glycol]
Experimental: as §1

| Test System | LOEC (log10 uM) [1] | LOEC (log10 uM) [2] | LOEC (log10 uM) (Perfluorononanoic acid) | LOEC (log10 uM) [3] | LOEC (log10 uM) (Perfluoroundecanoic acid) | LOEC (log10 uM) [4] | LOEC (log10 uM) [5] |
| --- | --- | --- | --- | --- | --- | --- | --- |
| 4H SRB down | 1.3 | 1.78 | 1.78 | 1.78 |  |  |  |
| BF4T Keratin818 down | 1.54 ± 0.34 | 1.3 | 1.78 | 1.54 ± 0.34 | 0.845 |  |  |
| 4H VCAM1 down | 1.78 | 1.54 ± 0.34 |  | 1.78 |  | 0.573 ± 0.39 |  |
| CASM3C LDLR down | 1.78 | 1.78 |  |  |  |  |  |
| KF3CT MIG down | 1.78 | 1.3 |  |  | 0.845 |  |  |
| KF3CT PAI1 down | 1.54 ± 0.34 | 0.845 | 1.78 | 1.54 ± 0.34 | 0.301 |  |  |
| 3C Eselectin down | 1.78 | 1.78 |  |  |  | 1.3 |  |
| LPS CD40 down | 1.78 | 1.78 | 1.78 | 1.78 |  | 1.78 |  |
| CASM3C HLADR down |  |  |  |  |  | 0.573 ± 0.39 |  |
| 4H uPAR down | 1.78 | 1.78 |  |  |  |  |  |
| hDFCGF MIG down | 0.573 ± 0.39 | 0.845 | 1.54 ± 0.34 | 1.3 | 0.845 |  | 0.845 |
| BF4T IL1a down | 1.78 | 1.3 | 1.78 | 1.78 | 0.845 |  |  |
| hDFCGF TIMP2 down |  | 0.845 |  | 1.54 ± 0.34 | 0.845 |  |  |
| 3C ICAM1 down | 1.78 | 1.78 |  |  |  |  |  |
| BT xTNFa down | 1.54 ± 0.34 |  |  |  |  | 1.54 ± 0.34 | 1.78 |
| MyoF CollagenIV up |  |  | 1.3 |  |  |  |  |
| CASM3C uPAR down | 1.78 |  |  |  |  |  |  |
| BE3C MMP9 down | 0.845 | 0.845 | 1.78 | 0.845 | -0.199 ± 0.71 |  |  |
| IMphg SRB.Mphg down | 1.78 | 1.78 |  |  |  |  |  |

| Test System | LOEC (log10 uM) [1] | LOEC (log10 uM) [2] | LOEC (log10 uM) (Perfluorononanoic acid) | LOEC (log10 uM) [3] | LOEC (log10 uM) (Perfluoroundecanoic acid) | LOEC (log10 uM) [4] | LOEC (log10 uM) [5] |
| --- | --- | --- | --- | --- | --- | --- | --- |
| LPS TissueFactor up |  |  |  | 1.78 |  |  |  |
| MyoF ACTA1 down | 1.3 | 0.845 | 1.78 | 1.78 | 0.845 |  | 1.78 |
| BT xIL17A down | 1.78 | 1.78 |  |  |  | 1.78 |  |
| SAg MIG down | 1.78 | 1.78 |  |  |  |  |  |
| 3C SRB down | 1.3 | 1.3 | 1.78 | 1.78 |  |  |  |
| BF4T ICAM1 down | 1.54 ± 0.34 | 1.07 ± 0.32 | 1.78 | 1.78 | 0.845 |  |  |
| CASM3C Proliferation down | 1.78 | 1.78 |  |  |  | 1.78 |  |
| SAg MCP1 down | 1.78 | 1.78 | 1.78 | 1.78 |  |  |  |
| BE3C SRB down | 1.78 | 0.845 | 1.78 | 1.78 | 0.845 |  |  |
| KF3CT SRB down | 1.78 | 1.3 |  |  | 0.845 |  |  |
| LPS SRB down | 1.78 | 1.78 | 1.78 | 1.78 |  |  |  |
| SAg CD40 down | 1.3 | 1.78 | 1.78 | 1.3 | 0.845 |  | 1.78 |
| BT sIgG down | 1.54 ± 0.34 | 1.78 |  | 1.54 ± 0.34 |  | 1.78 | 1.78 |
| hDFCGF TIMP1 up | 1.78 |  |  |  |  |  |  |
| MyoF SRB down | 1.3 | 1.07 ± 0.32 |  | 1.78 | 0.845 |  |  |
| KF3CT MMP9 down | 1.3 | 0.845 | 1.31 ± 0.66 | 1.3 | 0.301 |  |  |
| 3C MCP1 down | 1.78 | 1.78 | 1.78 |  |  |  |  |
| KF3CT IL8 down | 1.78 |  |  |  | 0.845 |  |  |
| LPS IL8 down | 1.78 | 1.07 ± 0.32 |  | 1.78 |  |  |  |

| Test System | LOEC (log10 uM) [1] | LOEC (log10 uM) [2] | LOEC (log10 uM) (Perfluorononanoic acid) | LOEC (log10 uM) [3] | LOEC (log10 uM) (Perfluoroundecanoic acid) | LOEC (log10 uM) [4] | LOEC (log10 uM) [5] |
| --- | --- | --- | --- | --- | --- | --- | --- |
| CASM3C SRB down | 1.78 | 1.78 |  |  |  |  |  |
| hDFCGF MMP1 up |  |  |  |  |  |  | 1.54 ± 0.34 |
| BF4T CD90 down | 1.78 | 1.3 |  |  |  |  |  |
| LPS CD69 down | 1.3 | 1.78 | 1.78 |  |  |  |  |
| MyoF VCAM1 down | 1.3 | 0.845 | 1.78 | 1.3 | 0.845 | 1.3 |  |
| BE3C EGFR down | 1.78 |  |  | 1.54 ± 0.34 | 0.845 |  |  |
| BE3C IL1a down | 1.78 | 0.845 | 1.78 | 1.78 | 0.845 |  |  |
| 4H Pselectin down | 1.78 | 1.78 |  | 1.54 ± 0.34 |  | 1.78 |  |
| BF4T MMP3 down | 1.78 | 1.07 ± 0.32 | 1.78 |  | 0.845 |  |  |
| LPS Eselectin down | 1.78 | 1.78 |  |  |  |  |  |
| MyoF TIMP1 down | 1.78 | 1.3 |  | 1.3 | 0.573 ± 0.39 |  |  |
| BE3C uPA down | 1.78 | 0.845 | 1.31 ± 0.66 |  | 0.845 |  |  |
| BF4T MCP1 down | 1.78 | 1.07 ± 0.32 | 1.3 | 1.3 | 0.845 |  | 1.3 |
| 4H MCP1 down | 1.78 | 1.78 |  | 1.78 |  |  | 1.78 |
| 3C MIG down | 1.78 | 1.78 |  |  |  |  |  |
| hDFCGF PAI1 down | 1.3 | 0.845 |  | 1.54 ± 0.34 | 0.845 |  |  |
| hDFCGF CollagenI down |  | 1.54 ± 0.34 |  | 1.78 | 0.845 |  |  |
| hDFCGF ICAM1 down | 1.3 | 1.07 ± 0.32 | 1.78 | 1.54 ± 0.34 | 0.845 |  |  |
| KF3CT IP10 down | 1.3 | 0.845 | 1.78 | 1.54 ± 0.34 | 0.845 |  |  |
